The source of these data is US7966056B2, “Magnetic resonance imaging method and compounds for use in the method” (GE Healthcare AS, priority 2002, dated 2011).

The test system of one series is mice. Conditions: intravenous injection in mice; cited from earlier work.
Series [1] in a line: maximum solubility in water. It counts as physicochemical. From the text: In the method according to the invention the contrast agent is preferably administered in a bolus injection although slow injection or infusion of the contrast agent is also suitable. For Mn^2+ complexes with low formation constants, e.g. in the area 10^3 to 10^8 there might be a risk that the release of Mn^2+ from the complex may still be sufficiently rapid to induce cardiotoxic reactions in the body. To avoid such toxic reactions, the contrast agent comprising such complexes could be provided in solutions comprising low concentrations of such complexes. If it is preferred to provide the contrast agent in dry form, e.g. as a lyophilized powder, for on site preparation of the solution for injection, complexes with properties that avoid the preparation of high concentration solutions provide an additional advantage. For example the sodium salt of MnTPP, Na3MP3O10, has a limited solubility, thus prohibiting injections of highly concentrated solutions of manganese. […] This injection volume additionally prohibits rapid bolus injections of sodium salts of MnTPP.

For a further series, the system named is anaesthetised dogs. Nature of the series: cardiovascular effects in anaesthetised dogs with and without dobutamine stress (Example 7). To be noted: dobutamine alone, 5-20 μg/kg/min infusion. It counts as in vivo. As to the method: The cardiovascular effects of MnHPTA with various amounts of Ca^2+ (0, 0.5 and 1 mol Ca^2+ per mol Mn^2+) were investigated in the presence and absence of dobutamine induced pharmacological stress in anaesthetised dogs.
Anaesthesia was induced with pentobarbital (12-25 mg/kg i.v.) and fentanyl (1.5-2.5 μg/kg i.v.), followed by a continuous i.v. infusion of fentanyl (20 μg/kg/h and pentobarbital (10 mg/kg/h). Artificial ventilation was carried out by room air through a tracheal tube, aimed at achieving normal physiological blood gas values. A catheter was introduced through the right femoral artery for measurement of SAP. A microtip pressure transducer catheter (Millar) was placed into the left ventricle through the carotid artery for measurements of LVdP/dt. A Swan-Ganz catheter was introduced through the right femoral vein for measuring PAP (pulmonary arterial pressure). A 3-lead ECG was continuously-monitored. An ultrasonic flow probe was placed around the left femoral artery for flow measurement. Venflon cannulas were introduced into the left and right jugular veins for contrast agent injections and dobutamine infusions, respectively. […]
Systolic, diastolic and mean systemic arterial pressure (SYS, DIA MEAN), LVdP/dt, femoral arterial flow, mean PAP (pulmonary arterial pressure), HR (heart rate) and ECG were continuously monitored and stored by a computer system.

Experimental for myocardium: In an anaesthesed pig, heart rate and systolic/diastolic blood pressure were monitored.
Dobutamine was infused at a dose of 10 μg/kg body weight/min and increased by 10 μg/kg/min every second minute until a PRP (pressure-rate product) of a factor 2.5 was achieved.
10 μmol/kg body weight of MnTPP was injected in a bolus during 4 seconds.
The pig was subjected to imaging at 1.5 T in a clinical scanner. Short axis view images of the myocardium were acquired 45 minutes post injection.

The term LD50 denotes the dose at which mortality reaches 50%. In the case of `[Ca+2].[Cl-].[Cl-]` [CaCl2], in the series with mice, the 50% lethal dose (LD50) is 42.2 mg/kg.
Turning to `O=P([O-])([O-])OP(=O)([O-])OP(=O)([O-])[O-].[Mn+2].[Na+].[Na+].[Na+]` [sodium salt of MnTPP], the “maximum solubility in water” value in series [1] was 23 mM.
In the case of manganese triphosphate [MnTPP], the “clinical signs represented by changes in physiological parameters” value in the series on myocardium (10 μmol/kg body weight bolus during 4 seconds, dobutamine stress, anaesthetised pig) is reported as “No clinical signs represented by changes in physiological parameters were observed”. Moreover, the “short axis view MR images of the myocardium” value with myocardium (10 μmol/kg, 1.5 T, 45 minutes post injection, pig) was “visualised an underperfused area”.
On to `CC(CCc1ccc(O)cc1)NCCc1ccc(O)c(O)c1` (stereo not drawn) [Dobutamine, dobutamine], for which the “increase in dP/dt max” value in the series with anaesthetised dogs worked out at 4 times.
In the case of `[Ba+2].[Cl-].[Cl-]` [BaCl2], the median lethal dose (LD50) in the series on mice was 19.2 mg/kg.
